The text below walks through data of patent US20170253581A1, “SUBSTITUTED HETEROCYCLES AS c-MYC TARGETING AGENTS” (Northwestern University, priority 2016, published 2017).

This assay addresses Myc/Max binding to DNA (Homo sapiens, UniProt P01106). The experiment in a line: Electrophoretic mobility shift assay (EMSA) of Myc/Max binding to DNA. Format: biochemical. Conditions: for remaining activity at 200 µM: read-out: Bound DNA (%) (200uM); for remaining activity at 100 µM: 100 uM test compound, read-out: Bound DNA (%) (100uM). How it is done: We also tested our best hit compound Min9 (NUCC-0176234) and newly synthesized analogs for effects of these compounds on Myc/Max binding to DNA in electrophoretic mobility shift assays (EMSAs). (See FIG. 5a and FIG. 5b). We expected the active compounds to impair Myc/Max binding to DNA. Several strucutural analogs of Min9 were tested over multiple doses for inhibiting Myc-DNA binding and we observed a dose-dependent inhibition. (See FIG. 5c).
Additional compounds were synthesized and tested in the EMSA assay at concentrations of 200 μM, 100 μM, and 50 μM.
In general terms: In EMSA bound probe runs differently from free probe, usually more slowly.

Sequence of Myc/Max binding to DNA (P01106 whole entry): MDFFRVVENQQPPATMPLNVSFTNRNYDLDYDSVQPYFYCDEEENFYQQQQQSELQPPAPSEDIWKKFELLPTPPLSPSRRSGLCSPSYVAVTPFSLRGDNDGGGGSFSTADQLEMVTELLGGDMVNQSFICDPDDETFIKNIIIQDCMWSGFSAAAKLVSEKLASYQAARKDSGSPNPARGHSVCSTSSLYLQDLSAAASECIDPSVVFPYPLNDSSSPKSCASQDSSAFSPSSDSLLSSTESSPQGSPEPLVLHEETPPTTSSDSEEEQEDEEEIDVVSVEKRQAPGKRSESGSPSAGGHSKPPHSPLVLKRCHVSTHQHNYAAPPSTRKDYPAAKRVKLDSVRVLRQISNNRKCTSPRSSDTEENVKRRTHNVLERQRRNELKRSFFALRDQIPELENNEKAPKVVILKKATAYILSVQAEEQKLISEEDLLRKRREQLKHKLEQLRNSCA

With `CCc1ccc(Oc2c[nH]nc2-c2ccc(OCc3ccc(Cl)cc3)cc2O)cc1` [NUCC-0176243], the remaining activity at 200 µM (EMSA, 200 uM test compound) amounted to 19%. Still for that read-out and setting: to `CCc1ccc(Oc2c[nH]nc2-c2ccc(OCc3ccc(C(F)(F)F)cc3)cc2O)cc1` [NUCC-0176244] belongs 20%. Take `CCc1ccc(Oc2c(-c3ccc(OCCc4cccc(C(F)(F)F)c4)cc3O)n[nH]c2C(F)(F)F)cc1` [NUCC-0176245]: the IC50 (as a rule, the point on the concentration scale where inhibition reaches its midpoint) amounted to 95 µM. In addition, the remaining activity at 100 µM (EMSA) stood at 36%. Besides, the remaining activity at 200 µM (EMSA, 200 uM test compound) was 0%. On to `CCc1ccc(Oc2c[nH]nc2-c2ccc(OCc3cnn(C)c3)cc2O)cc1` [NUCC-0176246], for which the remaining activity at 200 µM (EMSA, 200 uM test compound) amounted to 87%.

Consider `Oc1cc(OCc2ccc(Cl)cc2)ccc1-c1n[nH]cc1Oc1ccccc1` [NUCC-0176247], for which the remaining activity at 200 µM (EMSA, 200 uM test compound) was determined as 18%. Still for that read-out and setting: with `Cc1[nH]nc(-c2ccc(OCc3cnn(C)c3)cc2O)c1Oc1ccccc1` [NUCC-0176249] the figure was 85%. On the same count and under the same terms, with `Oc1cc(OCc2ccncc2)ccc1-c1n[nH]cc1Oc1ccccc1` [NUCC-0176251] the figure was 62%.

Take `Cc1[nH]nc(-c2ccc(OCc3ccncc3)cc2O)c1Oc1ccccc1` [NUCC-0176252]: the remaining activity at 200 µM (EMSA, 200 uM test compound) came out at 87%. Still for that read-out and setting: with `Cc1[nH]nc(-c2ccc(OCc3ccc(Cl)cc3)cc2O)c1Oc1ccccc1` [NUCC-0176253] the figure was 39%. Turning to `CCc1ccc(Oc2c[nH]nc2-c2ccc(OCc3ccncc3)cc2O)cc1` [NUCC-0176254], the remaining activity at 200 µM (EMSA, 200 uM test compound) turned out to be 101%. The same measure, in the same setting: to `Oc1cc(OCc2ccccc2)ccc1-c1n[nH]cc1Oc1ccccc1` [NUCC-0176255] belongs 11%. For the compound `CCc1ccc(Oc2c[nH]nc2-c2ccc(OCC3CCCCC3)cc2O)cc1` [NUCC-0176256], the “Bound DNA (%) (200uM)” value (EMSA, 200 uM test compound) was 100%. The “% Fraction Bound” value (Table 1, concentration not printed in the table (FIG. 5 and 6 legends: 200 μM test compounds)) is 9.1%. In the case of `CCc1ccc(Oc2c[nH]nc2-c2ccc(OCc3ccc(F)cc3)cc2O)cc1` [NUCC-0176257], the remaining activity at 200 µM (EMSA, 200 uM test compound) worked out at 7%.

Regarding `CCc1ccc(Oc2c[nH]nc2-c2ccc(OCCc3ccc(F)cc3)cc2O)cc1` [NUCC-0176258], under “EMSA, 200 uM test compound”, the remaining activity at 200 µM was determined as 17%. As to `Cc1[nH]nc(-c2ccc(OCc3ccc(F)cc3)cc2O)c1Oc1ccccc1` [NUCC-0176259], the remaining activity at 200 µM (EMSA, 200 uM test compound) stood at 26%.

On to `CCc1ccc(Oc2cn(C)nc2-c2ccc(OCc3ccc(Cl)cc3)cc2O)cc1` [NUCC-0176260], for which the remaining activity at 200 µM (EMSA, 200 uM test compound) stood at 113%. Same read-out and setting: to `CCc1ccc(Oc2c[nH]nc2-c2ccc(OCCc3ccc(Cl)cc3)cc2O)cc1` [NUCC-0176261] belongs 25%.

For `Cc1[nH]nc(-c2ccc(OCCc3ccc(Cl)cc3)cc2O)c1Oc1ccccc1` [NUCC-0176262], the remaining activity at 200 µM (EMSA, 200 uM test compound) was 54%. For `CCc1ccc(Oc2c(-c3ccc(OCc4ccc(Cl)cc4)cc3O)n[nH]c2CC)cc1` [compound 0196282], the remaining activity at 100 µM (EMSA) was determined as 87%. `COc1ccc(-c2c(-c3ccc(OCc4ccc(Cl)cc4)cc3O)n[nH]c2C(F)(F)F)cc1OC` [compound 0196283]: the IC50 stood at 49 µM. The remaining activity at 100 µM (EMSA) was determined as 4%. `Cc1ccc(C)c(Oc2c[nH]nc2-c2ccc(OCc3ccc(Cl)cc3)cc2O)c1` [compound 0196284]: the remaining activity at 100 µM (EMSA) amounted to 59%.

With `Cc1ccc(C)c(Oc2cn(C)nc2-c2ccc(OCc3ccc(Cl)cc3)cc2O)c1` [compound 0196285], where the note is “EMSA”, the remaining activity at 100 µM came to 118%.

`Cc1ccc(C)c(Oc2c[nH]nc2-c2ccc(OCc3cccc(Cl)c3)cc2O)c1` [compound 0196286]: the remaining activity at 100 µM (EMSA) is 65%. Consider `Cc1ccc(C)c(Oc2cn(C)nc2-c2ccc(OCc3cccc(Cl)c3)cc2O)c1` [compound 0196287], for which, where the note is “EMSA”, the remaining activity at 100 µM turned out to be 115%. On the same count and under the same terms, with `COc1cccc(COc2ccc(-c3n[nH]cc3Oc3cc(C)ccc3C)c(O)c2)c1` [compound 0196288] the figure was 81%; with `COc1cccc(COc2ccc(-c3nn(C)cc3Oc3cc(C)ccc3C)c(O)c2)c1` [compound 0196289], 136%; with `Cc1ccc(C)c(Oc2c[nH]nc2-c2ccc(OCc3ccc4ccccc4c3)cc2O)c1` [compound 0196290], 92%. Still for that read-out and setting: with `Cc1ccc(C)c(Oc2cn(C)nc2-c2ccc(OCc3ccc4ccccc4c3)cc2O)c1` [compound 0196291] the figure was 110%; with `CCc1ccc(Oc2c(-c3ccc(OCc4ccc(Cl)cc4)cc3O)nn(C)c2CC)cc1` [compound 0196294], 106%. On to `CCc1ccc(Oc2c(-c3ccc(OCc4cccc(Cl)c4)cc3O)n[nH]c2C(F)(F)F)cc1` [compound 0196295], for which the IC50 came to 66 µM. In addition, the remaining activity at 100 µM (EMSA) amounted to 12%. Take `CCc1ccc(Oc2c(-c3ccc(OCc4cccc(Cl)c4)cc3O)nn(C)c2C(F)(F)F)cc1` [compound 0196296]: the remaining activity at 100 µM (EMSA) was 73%. Still for that read-out and setting: to `CCc1ccc(Oc2c(-c3ccc(OCc4cccc(OC)c4)cc3O)n[nH]c2C(F)(F)F)cc1` [compound 0196297] belongs 45%; to `CCc1ccc(Oc2c(-c3ccc(OCc4cccc(OC)c4)cc3O)nn(C)c2C(F)(F)F)cc1` [compound 0196298], 98%. Same read-out and setting: with `Cc1ccc(C)c(Oc2cn(C)nc2-c2ccc(OCCN3CCCCC3)cc2O)c1` [compound 0196299] the figure was 138%; with `Oc1cc(OCc2ccc(Cl)cc2)ccc1-c1n[nH]c(C(F)(F)F)c1Oc1cccc(F)c1` [compound 0196301], 43%; with `Cn1nc(-c2ccc(OCc3ccc(Cl)cc3)cc2O)c(Oc2cccc(F)c2)c1C(F)(F)F` [compound 0196302], 65%. Same read-out and setting: to `Oc1cc(OCc2ccc(Cl)cc2)ccc1-c1n[nH]cc1Oc1ccc(Cl)cc1` [compound 0196303] belongs 72%. `Cn1nc(-c2ccc(OCc3ccc(Cl)cc3)cc2O)c(Oc2ccccc2Cl)c1C(F)(F)F` [compound 0196304]: the remaining activity at 100 µM (EMSA) turned out to be 13%. `Cn1cc(Oc2ccccc2Cl)c(-c2ccc(OCc3ccc(Cl)cc3)cc2O)n1` [compound 0196305]: the concentration for half-maximal inhibition (IC50) turned out to be 39 µM. Besides, the remaining activity at 100 µM (EMSA) worked out at 3%.

As to `COc1ccc(-c2c(-c3ccc(OCc4ccc(Cl)cc4)cc3O)noc2C(F)(F)F)cc1OC` [compound 0196306], the remaining activity at 100 µM (EMSA) was found to be 71%. On to `COc1ccc(-c2c(-c3ccc(OCc4ccc(Cl)cc4)cc3O)nn(C)c2C(F)(F)F)cc1OC` [compound 0196311], for which the remaining activity at 100 µM (EMSA) came to 94%.

Turning to `COc1ccc(-c2c(-c3ccc(OCc4ccc(Cl)cc4)cc3O)n[nH]c2C(F)(F)F)cc1` [compound 0196312], the remaining activity at 100 µM (EMSA) was 51%. Still for that read-out and setting: to `Oc1cc(OCc2ccc(Cl)cc2)ccc1-c1cc(C(F)(F)F)[nH]n1` [compound 0196313] belongs 1%; to `Cn1nc(-c2ccc(OCc3ccc(Cl)cc3)cc2O)cc1C(F)(F)F` [compound 0196314], 76%. The same measure, in the same setting: with `COc1ccc(-c2c(-c3ccc(OCc4ccc(Cl)cc4)cc3O)nn(C)c2C(F)(F)F)cc1` [compound 0196340] the figure was 35%. The same measure, in the same setting: with `Cn1nc(-c2ccc(OCCN3CCOCC3)cc2O)c(Oc2ccccc2Cl)c1C(F)(F)F` [compound 0196341] the figure was 154%; with `Oc1cc(OCc2ccc(Cl)cc2)ccc1-c1n[nH]c(C(F)(F)F)c1Oc1ccccc1Cl` [compound 0196342], 1%. Regarding `Oc1cc(OCc2ccc(Cl)cc2)ccc1-c1n[nH]cc1Oc1ccccc1Cl` [compound 0196343], the remaining activity at 100 µM (EMSA) is 48%. Same read-out and setting: to `Cc1ccc(-c2c(-c3ccc(OCc4ccc(Cl)cc4)cc3O)n[nH]c2C(F)(F)F)cc1` [compound 0196344] belongs 16%; to `Cc1ccc(-c2c[nH]nc2-c2ccc(OCc3ccc(Cl)cc3)cc2O)cc1` [compound 0196345], 102%. For the compound `Cc1ccc(-c2cn(C)nc2-c2ccc(OCc3ccc(Cl)cc3)cc2O)cc1` [compound 0196346], for the setting “EMSA”, the remaining activity at 100 µM stood at 114%. The same measure, in the same setting: to `Oc1cc(OCc2ccc(Cl)cc2)ccc1-c1n[nH]c(C(F)(F)F)c1-c1ccc(F)cc1` [compound 0196347] belongs 47%.

As for `Cn1nc(-c2ccc(OCc3ccc(Cl)cc3)cc2O)c(-c2ccc(F)cc2)c1C(F)(F)F` [compound 0196348], the remaining activity at 100 µM (EMSA) amounted to 9%. The same measure, in the same setting: with `Cn1cc(-c2ccc(F)cc2)c(-c2ccc(OCc3ccc(Cl)cc3)cc2O)n1` [compound 0196349] the figure was 135%; with `Oc1cc(OCc2ccc(Cl)cc2)ccc1-c1n[nH]cc1-c1cccc(Cl)c1` [compound 0196350], 18%. On the same count and under the same terms, to `Cn1cc(-c2cccc(Cl)c2)c(-c2ccc(OCc3ccc(Cl)cc3)cc2O)n1` [compound 0196351] belongs 130%; to `CCc1ccc(Oc2c(-c3ccc(OCc4ccc(Cl)cc4)cc3OC)nn(C)c2C(F)(F)F)cc1` [compound 0196352], 65%; to `CCc1ccc(Oc2c(-c3ccc(OCc4ccc(Cl)cc4)cc3)nn(C)c2C(F)(F)F)cc1` [compound 0196353], 122%. Consider `CCc1ccc(Oc2c(-c3ccc(OCc4ccc(Cl)c(Cl)c4)cc3O)nn(C)c2C(F)(F)F)cc1` [compound 0196354], for which the remaining activity at 100 µM (EMSA) was 82%. On the same count and under the same terms, to `CCc1ccc(Oc2c(-c3ccc(OCc4ccc(Cl)c(Cl)c4)cc3O)n[nH]c2C(F)(F)F)cc1` [compound 0196355] belongs 25%; to `CCc1ccc(Oc2c(-c3ccc(OCCc4ccc(Cl)cc4)cc3O)nn(C)c2C(F)(F)F)cc1` [compound 0196356], 68%.
